According to the NIST ThermoML archive (doi:10.1021/je301283e):

Conditions: Liquid, Vibrating tube method

CCCCCCC [heptane]
mass density [kg/m3]
Conditions	313.15 K	333.15 K	353.15 K	373.15 K	393.15 K
340 kPa	667.1	649.7	631.8	613.1	593.4
690 kPa	667.5	650.2	632.3	613.7	594.1
1030 kPa	667.8	650.6	632.8	614.3	594.9
1380 kPa	668.2	651	633.3	614.9	595.6
1720 kPa	668.64	651.4	633.9	615.5	596.3
2070 kPa	669	651.9	634.4	616.1	597
2410 kPa	669.3	652.3	634.9	616.7	597.8
2760 kPa	669.8	652.7	635.3	617.3	598.5
3100 kPa	670.1	653.2	635.8	618.2	599.2
3450 kPa	670.4	653.6	636.3	618.5	599.9
3800 kPa	670.8	654	636.8	619	600.5
4140 kPa	671.2	654.4	637.3	619.6	601.2
4480 kPa	671.6	654.8	637.7	620.2	601.9
4830 kPa	671.9	655.2	638.2	620.7	602.5
5170 kPa	672.2	655.6	638.7	621.2	603.2
5510 kPa	672.6	656	639.2	621.8	603.8
5860 kPa	672.9	656.4	639.6	622.3	604.4
6200 kPa	673.3	656.8	640.1	622.9	605.1
6550 kPa	673.6	657.2	640.6	623.4	605.7
6890 kPa	674	657.6	641	623.9	606.3
7240 kPa	674.3	658	641.5	624.4	606.9
7580 kPa	–	658.4	641.9	625	607.5
7930 kPa	–	658.8	642.3	625.5	608.1
8270 kPa	–	659.2	642.8	626	608.7
8620 kPa	–	–	643.2	626.5	609.3
8960 kPa	–	–	643.9	627	609.9
9310 kPa	–	–	644.1	627.5	610.8
9650 kPa	–	–	644.5	628	611.1
